# Tests used:
# DDX42 = test: SEC-MS elution profile; type: cell-based, human; details: 22Rv1 cells, 20 μM, 3 h
# Protocol: . Cell pellets were lysed by sonication (8 pulses, 40% power) in 600 μL ice-cold PBS supplemented with cOmplete protease inhibitors (1 tablet/10 mL of PBS), ultracentrifuged for 20 min at 100,000 g, then normalized to a standardized concentration (typically 1.5 to 2.5 mg/mL). Clarified lysate was injected into a Superdex 200 Increase 10/300 GL column attached to an AKTA pure FPLC system. Proteins were fractionated using an isocratic gradient (PBS) running at 0.5 mL/min into 5 fractions 2 mL wide, beginning at 8 mL and ending at 18 mL. Eluate was collected into 15 mL tubes containing 12 mL of acetone at 4C. After completion of one set of 5 fractions, the above protocol was repeated a second time for the remaining 5 fractions. Proteins were precipitated overnight at −20 C, then spun at 4500 g for 20 minutes, yielding a white protein pellet. […]
# Data processing: Fractional distributions for each peptide-spectra match with a total TMT reporter ion intensity were calculated by dividing the reporter ion intensity for each TMT channel by the summed intensity across the 5 TMT channels corresponding to a single treatment condition (Equation 1). […] Euclidean distances (SE shift scores, Equation 2) were calculated using the average elution profile for each protein across replicates, combined by treatment condition and cell line. […]
# [1] = biological target: T1, recombinant FLAG-PSME1 WT or C22A (Homo sapiens, UniProt Q06323, C22A); test: SEC analysis by western blot; type: cell-based; details: 22Rv1 cells expressing FLAG-PSME1 C22A, 10 μM, 3 h
# T1 construct: FLAG; expressed in transfected cells; host or cells: 22Rv1 pLenti3.3/TR (tetracycline-induced)
# Protocol: (§1) For experiments using transiently overexpressed constructs (FLAG-PSME1 WT/C22A, HA-ACAT1 WT/C126A), Stable clonal 22Rv1 pLenti3.3/TR were transfected using polyethylenimine and treated with tetracycline ([…]) for 48 h prior to treatment with electrophilic probes.
# (§2) Cells were lysed and fractioned by SEC. After acetone precipitation and resuspension, 4× gel loading buffer was added to eluates, and proteins were resolved using SDS-PAGE (4-20% acrylamide, Tris-glycine gel), and transferred to a nitrocellulose membrane. The membrane was blocked with 5% milk in Tris-buffered saline (20 mM Tris-HCl 7.6, 150 mM NaCl) with 0.1% tween (TBST) and incubated with primary antibody overnight. After TBST wash (3 times), the membrane was incubated with secondary antibody, washed with TBST again, developed with ECL western blotting detection reagents, and recorded on a Bio-Rad ChemiDoc MP. Relative band intensities were analyzed using ImageJ.
# [2] = biological target: T2, recombinant FLAG-PSME1 WT or C22A (Homo sapiens, UniProt Q06323); test: SEC analysis by western blot; type: cell-based; details: 22Rv1 cells expressing FLAG-PSME1 WT, 10 μM, 3 h
# T2 construct: FLAG; expressed in transfected cells; host or cells: 22Rv1 pLenti3.3/TR (tetracycline-induced)
# Protocol: as §1, §2
# T1 sequence (Q06323 whole entry C22A): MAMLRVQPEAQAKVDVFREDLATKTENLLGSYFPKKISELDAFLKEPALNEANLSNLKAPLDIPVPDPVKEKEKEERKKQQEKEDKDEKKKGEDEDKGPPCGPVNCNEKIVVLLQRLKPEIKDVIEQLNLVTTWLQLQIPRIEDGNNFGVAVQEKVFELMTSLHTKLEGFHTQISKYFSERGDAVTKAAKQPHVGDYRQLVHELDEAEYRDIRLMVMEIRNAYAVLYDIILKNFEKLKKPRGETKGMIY
# T2 sequence (Q06323 whole entry, stated change not applied): as the sequence (Q06323 whole entry C22A) above, with A22C counted along it
SEC size shift of recombinant PSME1 C22A mutant [1],SEC size shift of recombinant WT-PSME1 [2],Structure (SMILES),SEC migration shift of DDX42 (DDX42)
,,"C=CC(=O)N1[C@H](c2ccc3c(c2)OCO3)c2[nH]c3ccccc3c2C[C@H]1C(=O)N1CCOCC1 [WX-02-23, 1-((1R,3S)-1-(benzo[d][1,3]dioxol-S-yl)-3-(morpholine-4-carbonyl)-1,3,4,9-tetrahydro-2H-pyrido [3,4-b]indol-2-yl)prop-2-en-1-one]",stereoselectively caused this same size shift
unaffected,clear size shift,"C=CC(=O)N1C[C@H](c2ccc(Br)cc2)[C@@H]1C(=O)Nc1cccc2cccnc12 [MY-1B, (2R,3S)-1-acryloyl-3-(4-bromophenyl)-N-(quinolin-8-yl)azetidine-2-carboxamide]",

# — US20250034216A1, “STEREOSELECTIVE COVALENT LIGANDS FOR ONCOGENIC AND IMMUNOLOGICAL PROTEINS” (The Scripps Research Institute, priority 2021, published 2025)
